Where two headings read alike, the source gives them in different places.
What was measured:
H524 and H69 cells = experiment: Colony formation assay; type: cell-based; conditions: both cell lines; H524/H69: LB-100 2.5/20 μM, carboplatin 4/20 μM, etoposide 3/30 μM
Description: (§1) A Mann-Whitney U test was used for comparison between the normal and SCLC samples. FIG. 1B: IHC for PP2A was conducted on TMA tissue sections and images were captured at 4× or 20× using a 3D-Histech PANNORAMIC SCAN whole slide scanner (3D-Histech, Budapest, Hungary). […] TMAs were scored in normal (n=24) and tumor (n=79) cores on a scale from 0 (no staining/no protein expression) to 3+(strong staining/high protein expression). FIG. 1C: Summary bar graph of the average PP2A subunit staining. IHC staining intensity of normal and tumor cores. […] FIG. 1D: In order to compare the expression of PP2A subunits A and C, cell lysates from seven SCLC cell lines and HBEC 3KT (non-malignant cell line) were subjected to western blotting. FIG. 1E: PP2A activity was determined using a serine/threonine phosphatase activity assay (Millipore) after 24 h exposure to cantharidin (10 μM) and LB-100 (5 μM). […] The Cell Counting Kit-8 assay detected cell H524 and H69 cell viability. […] FIGS. 1I-1K: Graphs depict the mean+SEM of percent viability for cells (n=3). Colony formation assays were used to count the ability of H524 (FIGS. 11 and 1J) and H69 (FIGS. 1K and 1L) cells to form colonies. […] Representative images of colonies at 4× are shown under the graph (n=2).*p<0.05; **, p<0.01; *** p<0.001; ****, p<0.0001. Experiments were repeated in triplicate and representative data are shown.

H69 cells [1] = experiment: Seahorse XF Real-Time ATP rate assay, H69; type: cell-based; conditions: LB-100 10 μM, carboplatin 10 μM
H524 cells [2] = experiment: Transendothelial extravasation assay through HUVEC monolayer, H524; type: cell-based; conditions: after 20 h of drug treatment
Description: (§2) FIGS. 3A-3H depict SCLC cell invasion through HUVEC monolayer. FIGS. 3A-3D: Graphical representation of H524/H69 cell ability to disrupt a confluent HUVEC monolayer using an electrical substrate-impedance sensing system. Arrows indicate time point when cells were added. Inserts show mean values and SD for each group after 20 h of drug treatment. After treatment, cell viability was counted using an Auto T4 Cell Counter (Nexcelom Cellometer). […] Whole cell Pt accumulation. Graphical representation of LB-100 effect on platinum uptake by SCLC cells. Cells were pretreated with LB-100 (H524—5 μM; H69—20 μM) overnight, then treated with carboplatin for one or four hours (H524—10 μM; H69—30 μM). Whole cell pellet was used for platinum (Pt) measurement. Values are normalized to total protein concentration. FIGS. 3E and 3F: Panels show mean values and SD of Pt accumulation for each group. […] Effect of LB-100 on PP2A expression and apoptosis regulatory proteins in H524 and H69 cells. […]
(§3) To discern the effect of LB100 on cell invasion, we tested the ability of SCLC cells to invade though a layer of endothelial cells (ECs). Toward this end, we measured the trans-endothelial monolayer resistance using an electrical substrate-impedance sensing system (Applied Biophysics, Troy, N.Y., USA), as previously described (24). […]

H526 cells = experiment: Cell Counting Kit-8 cytotoxicity, H526
Description: (§4) To determine specific cytotoxicity, we used Cell Counting Kit-8 (Dojindo Molecular Technologies, Rockville, Md.) as previously described (50).

H524 cells [3] = experiment: Cell Counting Kit-8 cytotoxicity and drug combination, H524
Description: as §1

H446 cells = experiment: Cell Counting Kit-8 cytotoxicity, H446
Description: as §4

H146 cells = experiment: Cell Counting Kit-8 cytotoxicity, H146
Description: as §4

H69 cells [4] = experiment: Transendothelial extravasation assay through HUVEC monolayer, H69; type: cell-based; conditions: after 20 h of drug treatment
Description: as §2, §3

SMILES	colony formation (H524 and H69 cells)	drop of total ATP production rate (H69 cells [1])	% change of HUVEC barrier disruption (transmigration) (H524 cells [2])	IC50 (H526 cells; read-out: Cytotoxicity IC50, H526, 72 hours)	IC50 (H524 cells [3]; read-out: Cytotoxicity IC50, H524, 72 hours)	IC50 (H446 cells; read-out: Cytotoxicity IC50, H446, 72 hours)	IC50 (H146 cells; read-out: Cytotoxicity IC50, H146, 72 hours)	% change of HUVEC barrier disruption (transmigration) (H69 cells [4])	IC50 (H526 cells; Homo sapiens, NCI-H526, 72 h, read-out: Cytotoxicity IC50, H526)	IC50 (H524 cells [3]; Homo sapiens, NCI-H524, 72 h, read-out: Cytotoxicity IC50, H524, 72 hours)	IC50 (H524 cells [3]; human, 72 h)	IC50 (H446 cells; Homo sapiens, NCI-H446, 72 h, read-out: Cytotoxicity IC50, H446)	IC50 (H146 cells; Homo sapiens, NCI-H146, 72 h, read-out: Cytotoxicity IC50, H146)
N.N.O=C([O-])C1(C(=O)[O-])CCC1.[Pt+2] [Carboplatin, reference compound]	significantly reduced colony formation	12%	18.2 ± 0.4%	33.2 µM	8.2 µM	26.2 µM	8.3 µM	14.9 ± 1.24%	–	–	–	–	–
C[NH+]1CCN(C(=O)C2C(C(=O)O)[C@H]3CC[C@@H]2O3)CC1 (stereo in doubt) [LB-100, 3-[(4-Methylpiperazin-1-yl)carbonyl]-7-oxabicyclo[2.2.1]heptane-2-carboxylic acid]	significantly reduced colony formation	54%	16.9+2%	–	–	–	–	12.3 ± 0.92%	< 8 µM	< 8 µM	5.3 µM	< 8 µM	~20 µM

Reference: US20230065158A1, “OXABICYCLOHEPTANES FOR TREATMENT OF SMALL CELL LUNG CANCER” (Lixte Biotechnology, Inc., priority 2021, published 2023)
